Measured values from paper PMC9995496, “A screen for MeCP2-TBL1 interaction inhibitors using a luminescence-based assay” (Scientific Reports, 2023).

Target: T1, MeCP2-TBL1 interaction (MeCP2-SmBiT / TBL1-LgBiT) (Mus musculus, UniProt Q9QXE7)
T1 construct: expressed in transfected cells; crude lysate used as a cell-free assay
T1 sequence (Q9QXE7 166-527): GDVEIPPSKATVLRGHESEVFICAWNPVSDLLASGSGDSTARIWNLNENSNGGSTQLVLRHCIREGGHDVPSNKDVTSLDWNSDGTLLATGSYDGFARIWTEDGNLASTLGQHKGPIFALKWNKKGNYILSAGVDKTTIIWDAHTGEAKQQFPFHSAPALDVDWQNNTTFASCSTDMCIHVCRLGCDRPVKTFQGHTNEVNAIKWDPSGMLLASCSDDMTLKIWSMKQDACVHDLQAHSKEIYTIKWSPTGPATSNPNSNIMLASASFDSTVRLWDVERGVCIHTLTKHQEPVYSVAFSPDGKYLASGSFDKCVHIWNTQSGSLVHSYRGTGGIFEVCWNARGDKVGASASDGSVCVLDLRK
Assay: MeCP2-TBL1 NanoLuc luciferase complementation assay (cell-free, extracts of transfected HEK293 cells);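 further: each compound tested at 20 µM final concentration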
Type: binding, human
Summary of the method: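 Cell-free split NanoLuc: lysate of HEK293 cells co-expressing the MeCP2 C-terminal half-SmBiT and TBL1 WD domain-LgBiT, mixed 1:1 with furimazine. After 30 min at room temperature, luminescence was plate-median normalized.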

[1] = primary screen of the Asinex library, sheet "Sargen output Asinex library", one well per compound, Batch Ref. 1
[2] = primary screen of the Asinex library, sheet "Sargen output Asinex library", one well per compound
[3] = primary screen of Asinex library, single well per compound

SMILES	Inhibition percent [1] [%]	Inhibition percent [2] [%]	further results
CC1(C(=O)N2CCOCC(Cc3ccc4ncccc4c3)C2)CCN(C(=O)c2ccccc2)CC1 (stereo not shown) [BDH_32372082]	0.77	–	–
COc1ccc(C2(C(=O)N3CCC4(CC3)CC(Oc3ccccc3F)CO4)CCOCC2)cc1 (stereo not shown) [BDH_32372513]	–	-1.24	–
Cc1nccn1Cc1ccccc1C(=O)N1C[C@@H](c2cccc(F)c2)[C@@]2(CCCCC(=O)N2)C1 [BDH_32372714]	–	–	Inhibition percent [3]: -2.77
O=C1CCCN1CCOc1ccccc1C(=O)N1CCCC(Cc2cn3ccnc3cn2)CC1 (stereo not shown) [BDH_32372856]	–	-2.49	–
CNC(=O)c1cccc(C2CN(C(=O)c3ccc(OCc4ccccn4)c(OC)c3)CCN2C)c1 (stereo not shown) [BDH_32373002]	–	4.71	–
COCC(=O)N1CCC(C)(C(=O)N2CCCC2c2ccnc(-c3cccc(Cl)c3)n2)CC1 (stereo not shown) [BDH_32373816]	–	–	Inhibition percent [3]: 0.44
Cn1cc(-c2cc(C(=O)N3CCCC(c4cccc(-c5cccc(C(N)=O)c5)n4)C3)ccn2)cn1 (stereo not shown) [BDH_32374050]	–	-6.35	–
O=C(c1ccccc1Cn1ccnc1)N1CCOCC2(C1)CN(c1ccc(Cl)cc1)C(=O)O2 (stereo not shown) [BDH_32374184]	–	–	Inhibition percent [3]: 1.12
Cn1ccc(C(=O)Nc2ccccc2C(=O)N2CCC3(CN(Cc4ccccc4)C(=O)O3)C2)n1 (stereo not shown) [BDH_32374198]	–	-4.02	–
CN1C(=O)C2(CCN(C(=O)C3(c4ccccc4)CCOCC3)CC2)CC1Cc1ccccc1 (stereo not shown) [BDH_32374590]	0.40	–	–
C[C@]12C[C@@H](Cc3ccccc3)N(C(=O)c3cccc(CN4CCCC4=O)c3)[C@H]1CCCC(=O)N2 [BDH_32374892]	-1.59	–	–
COCC(=O)N1CCC(C)(C(=O)N2CCC[C@]3(C[C@@H](Oc4cccc(F)c4)CO3)C2)CC1 [BDH_32375031]	–	-4.50	–
C[C@@]12C[C@H]3[C@H](Cc4ccccc4)N[C@@H]1CCCC[C@@H]2N3C(=O)c1ccnc(Cc2ccccc2)c1 [BDH_33392602]	–	3.55	–
O=C(COc1ncnc2ccccc12)N1CCC[C@@]2(C[C@@H](Oc3ccc(F)c(Cl)c3)CO2)C1 [BDH_33516387]	–	–	Inhibition percent [3]: 6.08
COc1cccc(-c2cc(C(=O)N3CCC[C@@]4(C[C@@H](Oc5cccc(Cl)c5)CO4)C3)[nH]n2)c1 [BDH_33516566]	–	6.38	–
CC(C)CN1C(=O)C2(CCN(C(=O)Cn3cccnc3=O)CC2)CC1Cc1ccc(F)cc1 (stereo not shown) [BDH_33517008]	-0.88	–	–
O=C(c1cc(-c2cccc(F)c2)no1)N1CCC[C@@]2(C[C@@H](Oc3ccccc3F)CO2)C1 [BDH_33517958]	–	4.74	–
COc1ccc([C@H]2CN(C)[C@@H]3CCN(C(=O)c4ccnc(Cc5ccccc5OC)c4)C[C@H]23)cc1 [BDH_33520255]	–	-0.37	–
COc1ccccc1Cc1ccc(C(=O)N2CCCC2c2cncc(-c3nccn3C)n2)cn1 (stereo not shown) [BDH_33521295]	-3.44	–	–
COc1ccccc1Cc1ccc(C(=O)N2CCCC2c2cncc(-c3nc(C)c[nH]3)n2)cn1 (stereo not shown) [BDH_33521296]	–	-4.74	–
COc1ccccc1Cc1ccc(C(=O)N2CCC(c3cccc(-c4cncn4C)n3)CC2)cn1 [BDH_33521315]	0.21	–	–

SMILES	Inhibition percent [1] [%]	Inhibition percent [2] [%]	further results
COc1ccccc1Cc1ccc(C(=O)N2CCCC2c2cccc(-c3cncn3C)n2)cn1 (stereo not shown) [BDH_33521317]	–	-1.25	–
CNC(=O)c1cnn2c(C3CCCN(C(=O)c4ccnc(Cc5cccc(F)c5)c4)C3)ccnc12 (stereo not shown) [BDH_33521351]	-0.09	–	–
Cc1c[nH]c(-c2nccnc2CC2CCCN(C(=O)c3ccnc(Cc4cccc(F)c4)c3)C2)n1 (stereo not shown) [BDH_33521378]	–	–	Inhibition percent [3]: -5.26
Cc1c[nH]c(-c2cncc(C3CCCN(C(=O)c4ccnc(Cc5cccc(F)c5)c4)C3)n2)n1 (stereo not shown) [BDH_33521385]	–	-2.90	–
Cn1ccnc1-c1nccnc1C1CCN(C(=O)c2ccnc(Cc3cccc(F)c3)c2)CC1 [BDH_33521386]	-2.61	–	–
NC(=O)c1cc(CC2CCCN(C(=O)c3ccnc(Cc4ccccc4)c3)CC2)ncn1 (stereo not shown) [BDH_33521416]	–	-0.17	–
NC(=O)c1cnn2c(C3CCCCN3C(=O)c3ccnc(Cc4ccccc4)c3)ccnc12 (stereo not shown) [BDH_33521422]	-0.87	–	–
CNC(=O)c1cnn2c(C3CCCCN3C(=O)c3ccnc(Cc4ccccc4F)c3)ccnc12 (stereo not shown) [BDH_33521663]	-0.23	–	–
O=C(c1ccnc(Cc2ccccc2F)c1)N1CCC(Cc2nccnc2-c2ncc[nH]2)CC1 [BDH_33521693]	0.97	–	–
Cc1c[nH]c(-c2cncc(CC3CCN(C(=O)c4ccc(Cc5ccccc5F)nc4)CC3)n2)n1 [BDH_33521764]	0.73	–	–
COc1ccccc1Cc1cc(C(=O)N2CCCC2c2cncc(-c3nc(C)c[nH]3)n2)ccn1 (stereo not shown) [BDH_33522145]	0.17	–	–
COc1ccccc1Cc1cc(C(=O)N2CCC(c3nccnc3-c3nc(C)c[nH]3)CC2)ccn1 [BDH_33522161]	6.35	–	–
COc1cccc(N2CCC(O)(CN3C[C@@H](c4cccc(F)c4)[C@@]4(CCCC(=O)N4)C3)CC2)c1 [BDH_33611042]	2.32	–	–
COc1ccc([C@@H]2C[C@]3(C)NC(=O)CCC[C@@H]3N2CC2(O)CCN(c3cccc(OC)c3)CC2)cc1 [BDH_33611075]	–	1.71	–
COc1ccc(N2CCN(CC3(O)CCN(c4cccc(C)c4)CC3)C(C(N)=O)C2)cc1 (stereo not shown) [BDH_33612322]	-0.28	–	–
COc1cccc([C@@H]2C[C@]3(C)NC(=O)CCCC[C@@H]3N2CC(=O)Nc2ccc(N3CCCC3)cc2)c1 [BDH_33614614]	–	–	Inhibition percent [3]: -1.03
COc1ccc([C@@H]2[C@H]3CCCC[C@@]3(O)CCN2CC(=O)Nc2ccc(N3CCOCC3)cc2)cc1 [BDH_33614948]	–	1.72	–
COc1cccc([C@@H]2C[C@]3(C)NC(=O)CCCC[C@@H]3N2CC(=O)Nc2ccc3[nH]c(=O)[nH]c3c2)c1 [BDH_33615500]	–	-1.75	–
CC(=O)N[C@@H]1C[C@@H](C(=O)N(C)C)N(CC(=O)Nc2ccc3[nH]c(=O)[nH]c3c2)[C@H]1c1ccccc1 [BDH_33615574]	–	-1.45	–
COc1cccc([C@@H]2C[C@]3(C)NC(=O)CCCC[C@@H]3N2CC(=O)NCCc2nc3ccccc3[nH]2)c1 [BDH_33615965]	0.09	–	–
CC(=O)N1CCN(CC(=O)NCCc2nc3ccccc3[nH]2)CC1c1ccc(C(F)(F)F)cc1 (stereo not shown) [BDH_33616082]	–	-1.86	–

SMILES	Inhibition percent [1] [%]	Inhibition percent [2] [%]	further results
C[C@]12C[C@@H](Cc3ccccc3)N(CC(=O)NCCc3nc4ccccc4[nH]3)[C@H]1CCCC(=O)N2 [BDH_33616100]	–	-2.04	–
CC(=O)N[C@@]12CN(CC(=O)Nc3ccc4nc(C)[nH]c4c3)CC[C@@H]1[C@@H](c1ccccc1)N(C(C)=O)C2 [BDH_33616134]	1.14	–	–
Cc1nc2ccc(NC(=O)CN3C[C@@H](c4cc(F)cc(F)c4)[C@@]4(CCCCC(=O)N4)C3)cc2[nH]1 [BDH_33616136]	–	–	Inhibition percent [3]: -1.00
Cc1nc2ccc(NC(=O)CN3CC[C@@]4(C)[C@@H]3CCCCC(=O)N4Cc3ccc(F)cc3)cc2[nH]1 [BDH_33616216]	6.38	–	–
CC(=O)N[C@H]1C[C@@H](C(=O)N(C)C)N(CC(=O)Nc2cccc(C(F)(F)F)c2)[C@H]1c1ccccc1 [BDH_33616368]	–	-1.15	–
CC(=O)N[C@@]12CN(CC(=O)Nc3cccc(C(F)(F)F)c3)CC[C@@H]1[C@@H](c1ccccc1)N(C)C2 [BDH_33616433]	–	-0.29	–
C[C@]12C[C@@H](Cc3ccccc3)N(CC(=O)Nc3cccc(C(F)(F)F)c3)[C@H]1CCCC(=O)N2 [BDH_33616434]	6.90	–	–
Cc1n[nH]c(C)c1NC(=O)CN1C[C@@H](c2cc(F)cc(F)c2)[C@@]2(CCCCC(=O)N2)C1 [BDH_33616713]	–	–	Inhibition percent [3]: -0.00541
NC(=O)C1CN(Cc2ccccc2)CCN1CC(=O)Nc1ccccc1C(F)(F)F (stereo not shown) [BDH_33617130]	–	-2.26	–
C[C@]12C[C@@H](c3ccccc3)N(CC(=O)Nc3ccc4c(c3)OCCO4)[C@H]1CCCCCN2 [BDH_33617257]	–	–	Inhibition percent [3]: -2.26
CC(=O)N[C@H]1C[C@@H](C(=O)N(C)C)N(CC(=O)Nc2ccc3c(c2)OCCO3)[C@H]1c1ccccc1 [BDH_33617336]	–	–	Inhibition percent [3]: -1.52
CC(=O)N[C@@]12CN(C)CC[C@@H]1[C@@H](c1ccccc1)N(CC(=O)Nc1ccc3c(c1)OCCO3)C2 [BDH_33617398]	–	-1.20	–
CCn1c(=O)oc2cc(NC(=O)CN3C[C@]4(NC(C)=O)CN(C)CC[C@@H]4[C@H]3c3ccccc3)ccc21 [BDH_33617644]	–	-0.000394	–
COc1cccc([C@@H]2C[C@]3(C)NC(=O)CCCC[C@@H]3N2CC(=O)Nc2ccc3c(c2)nc(C)n3C)c1 [BDH_33617989]	–	1.66	–
Cc1nc2cc(NC(=O)CN3C[C@@H](c4cc(F)cc(F)c4)[C@@]4(CCCCC(=O)N4)C3)ccc2n1C [BDH_33617993]	1.15	–	–
CC(=O)N[C@@]12CN(C)CC[C@@H]1[C@@H](c1ccccc1)N(CC(=O)Nc1ccc3c(c1)nc(C)n3C)C2 [BDH_33618117]	4.04	–	–
COc1ccc([C@@H]2C[C@]3(C)NC(=O)CCC[C@@H]3N2CC(=O)Nc2ccc3c(c2)nc(C)n3C)cc1 [BDH_33618124]	4.89	–	–
COc1ccc(C)c(NC(=O)CN2CC[C@@]3(NC(C)=O)CN(C(C)=O)[C@H](c4ccccc4)[C@H]3C2)c1 [BDH_33618460]	1.43	–	–
COc1ccc(C)c(NC(=O)CN2CC[C@@H]3[C@@H](c4ccccc4)N(C(C)=O)C[C@]3(NC(C)=O)C2)c1 [BDH_33618463]	–	-3.37	–
